{"source": "patent US12275976B2", "about": "“Phloroglucinol-resistant cell, in particular yeast” (COMPAGNIE GENERALE DES ETABLISSEMENTS MICHELIN, priority 2019, dated 2025)", "key": {"yeast cells": {"test_system": "yeast cells", "test": "Phloroglucinol toxicity in yeast with ethanol added after 20 h of culture", "conditions": "20 g/l of phloroglucinol, 50 g·l^−1 ethanol added at 20 h, read at 48 h", "protocol": "The toxicity of phloroglucinol in the presence of ethanol added after 20 h of culture was tested.\nThe experiments were carried out in an Erlenmeyer flask with vigorous stirring in complete medium containing 2% glucose as carbon source. The yeast cells were inoculated at an OD600 nm of 0.05 from precultures in complete medium. The cultures are completed with increasing concentrations of phloroglucinol (0, 1, 5, 10, 15, 20 g/l) and incubated for 48 h. Two series of Erlenmeyer flasks were prepared. In the second series, 50 g·l^−1 of ethanol are added at 20 h. The growth is monitored by taking samples at 18 h, 20 h, 22 h, 24 h, 42 h and 48 h, and measuring the OD600 nm."}, "SNQ2": {"target": "T1, SNQ2 (Saccharomyces cerevisiae, UniProt P32568)", "T1 construct": "expressed in transfected cells; host or cells: Saccharomyces cerevisiae, gene integrated at the JLP1 locus under the pCCW12 promoter (clones YA2786-1 and YA2786-2)", "T1 sequence (P32568 whole entry)": "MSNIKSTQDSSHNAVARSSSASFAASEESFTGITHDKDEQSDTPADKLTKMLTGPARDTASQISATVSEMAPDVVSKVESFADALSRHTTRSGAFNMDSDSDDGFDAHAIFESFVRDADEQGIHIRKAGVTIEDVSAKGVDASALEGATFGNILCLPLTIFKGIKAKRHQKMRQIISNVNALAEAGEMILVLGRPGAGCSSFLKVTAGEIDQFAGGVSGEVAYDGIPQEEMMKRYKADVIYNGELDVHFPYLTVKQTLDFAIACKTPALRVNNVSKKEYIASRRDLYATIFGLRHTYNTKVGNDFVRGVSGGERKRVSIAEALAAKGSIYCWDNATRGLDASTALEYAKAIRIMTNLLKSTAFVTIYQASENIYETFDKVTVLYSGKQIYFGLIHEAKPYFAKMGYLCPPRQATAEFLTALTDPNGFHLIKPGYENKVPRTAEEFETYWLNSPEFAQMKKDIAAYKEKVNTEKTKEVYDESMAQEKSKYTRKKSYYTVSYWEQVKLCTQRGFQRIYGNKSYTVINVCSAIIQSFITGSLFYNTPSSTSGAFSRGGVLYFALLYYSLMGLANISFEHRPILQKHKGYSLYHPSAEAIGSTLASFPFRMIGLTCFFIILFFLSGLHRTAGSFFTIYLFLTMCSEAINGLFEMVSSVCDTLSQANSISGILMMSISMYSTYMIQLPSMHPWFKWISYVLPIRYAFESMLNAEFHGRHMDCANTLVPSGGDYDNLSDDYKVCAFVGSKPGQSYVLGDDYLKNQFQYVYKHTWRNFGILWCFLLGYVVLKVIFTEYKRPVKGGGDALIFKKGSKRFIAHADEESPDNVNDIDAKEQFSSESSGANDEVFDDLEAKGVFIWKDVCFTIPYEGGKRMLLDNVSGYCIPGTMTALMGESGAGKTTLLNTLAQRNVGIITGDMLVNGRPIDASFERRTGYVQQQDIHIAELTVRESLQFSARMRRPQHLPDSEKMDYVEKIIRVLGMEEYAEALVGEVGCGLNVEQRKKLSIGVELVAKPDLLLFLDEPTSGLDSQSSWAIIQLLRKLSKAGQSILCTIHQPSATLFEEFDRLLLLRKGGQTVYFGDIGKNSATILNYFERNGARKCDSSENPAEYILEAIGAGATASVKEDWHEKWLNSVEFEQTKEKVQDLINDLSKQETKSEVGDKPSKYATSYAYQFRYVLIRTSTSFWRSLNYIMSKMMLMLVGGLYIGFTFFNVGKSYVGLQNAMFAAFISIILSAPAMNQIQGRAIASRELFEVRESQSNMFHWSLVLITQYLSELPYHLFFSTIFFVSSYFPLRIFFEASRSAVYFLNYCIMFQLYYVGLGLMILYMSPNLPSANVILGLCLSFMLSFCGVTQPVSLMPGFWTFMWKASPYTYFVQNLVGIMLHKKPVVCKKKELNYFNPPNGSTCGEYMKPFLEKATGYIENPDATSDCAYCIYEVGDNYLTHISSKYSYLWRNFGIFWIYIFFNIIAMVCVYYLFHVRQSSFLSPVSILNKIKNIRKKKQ", "test": "Phloroglucinol tolerance of yeast strains overexpressing PDRs (OD600 nm at 24 h)", "format": "cell-based", "conditions": "inferred from SNQ2 overexpression lifting toxicity at 20 g·l^−1 phloroglucinol", "source_text": "The genes encoding the PDR proteins were amplified from yeast (W303-1A) genomic DNA by PCR (“polymerase chain reaction”) and cloned in plasmids. The accuracy of the sequence was verified by sequencing. The various genes encoding the PDRs were integrated into the genome at the JLP1 locus according to the structure described in FIG. 4A. Each strain constructed bears a YA number, and a library of 28 yeast strains overexpressing a PDR transporter was thus created, in a proportion of two clones per transporter.\nIn order to test the impact of the PDR overexpression on the phloroglucinol tolerance at high phloroglucinol concentration (>15 g·l^−1), the strains were cultured as follows.\nThe phloroglucinol was dissolved at the concentration of 20 g·l^−1 in YPD medium containing 2% glucose as carbon source. In order to carry out the experiment, the yeasts expressing each PDR were inoculated at an OD600 nm of 0.05. The cultures were carried out in 48-well microplates, incubated with agitation at 28° C. for 24 h. After 24 h, the OD600 nm is measured. FIG. 5 represents the OD600 nm values obtained at the end of the culture."}, "CC787-1B yeast strain": {"test_system": "CC787-1B yeast strain", "test": "Growth kinetics of yeast cells in the presence of increasing phloroglucinol concentrations", "description": "(§1) In order to know the threshold of phloroglucinol tolerance of bacteria or of yeasts, growth kinetics were prepared in the presence of various concentrations of phloroglucinol. These preliminary experiments aimed to evaluate their EC50.\n(§2) The experiment was carried out in the following way. The phloroglucinol was dissolved at the concentration of 15 g·l^−1 in complete medium (Yeast Extract 1%+BactoPeptone 2%) containing 2% glucose as carbon source (YPD medium). The culture media containing lower phloroglucinol concentrations were obtained by diluting this first medium in the same YPD medium containing 2% glucose.\n(§3) In order to carry out the experiment, the wild-type yeast or bacterial cells were inoculated at an OD600 nm of 0.05 into the various media, thus containing, as soon as the cultures were started, either 0 (positive control for growth indicated C+), 1, 2.5, 5, 7.5, 10 or 15 g·l^−1 of phloroglucinol. The cultures were carried out in 48-well microplates, at 28° C. for the yeasts, at 37° C. for the bacterial strain, with vigorous shaking for 24 h. Two yeast strains (Saccharomyces cerevisiae) and one bacterial strain (Escherichia coli) were tested."}, "[1]": {"test_system": "bacterial strain of Escherichia coli (ECAO50, derived from Escherichia coli K12)", "test": "microbe, parasite or virus in culture", "conditions": "24 h", "description": "as §1, §2, §3"}}, "data": [{"smiles": "Oc1cc(O)cc(O)c1", "note": "[phloroglucinol, benzene-1,3,5-triol]", "values": [{"measurement": "phloroglucinol inhibition in the presence of ethanol versus without ethanol", "setting": "yeast cells", "result": "slightly greater"}, {"measurement": "transporter substrate status", "setting": "SNQ2", "result": "substrate for SNQ2"}, {"measurement": "EC50", "setting": "CC787-1B yeast strain; Saccharomyces cerevisiae, 24 h, read-out: EC50 of phloroglucinol on growth", "result": "> 10000", "unit": "µg/mL"}, {"measurement": "concentration from which phloroglucinol toxicity on yeast cells is apparent", "setting": "CC787-1B yeast strain; conclusion", "result": "≥ 15000", "unit": "µg/mL"}, {"measurement": "concentration at which significant inhibition of the growth is observed", "setting": "CC787-1B yeast strain; only in this medium among 1-15 g·l^−1, 28° C., 24 h", "result": 15000, "unit": "µg/mL"}, {"measurement": "concentrations giving total inhibition of the growth", "setting": "[1]; 37° C.", "result": "greater than or equal to 2.5 g·l^−1"}, {"measurement": "EC50", "setting": "[1]; Escherichia coli, read-out: EC50 of phloroglucinol on growth", "result": "~750", "unit": "µg/mL"}, {"measurement": "inhibition of the growth", "setting": "[1]; at the concentration of 1 g·l^−1, 37° C.", "result": "very considerable inhibition of the growth"}]}]}
